According to patent US20260198498A1, “FUNGICIDAL COMPOSITIONS” (SYNGENTA CROP PROTECTION AG, priority 2022, published 2026):

Key:
[1] = Comparison of fungicidal activity of the separated stereoisomers (peaks 1 to 4); details: SFC-separated stereoisomers of Example P3
Alternaria solani = experiment: Example B1: Alternaria solani/Tomato/Leaf Disc (Early Blight); type: in vivo; details: foliar, tomato leaf disks, inoculated 2 days after application, compared to untreated control
Procedure: Example B1: Alternaria solani/Tomato/Leaf Disc (Early Blight)
Tomato leaf disks cv. Baby are placed on agar in multiwell plates (24-well format) and sprayed with the formulated test compound diluted in water. The leaf disks are inoculated with a spore suspension of the fungus 2 days after application. The inoculated leaf disks are incubated at 23° C./21° C. (day/night) and 80% rh under a light regime of 12/12 h (light/dark) in a climate cabinet and the activity of a compound is assessed as percent disease control compared to untreated when an appropriate level of disease damage appears on untreated check leaf disks (5-7 days after application).

[2] = test system: Botryotinia fuckeliana (Botrytis cinerea); experiment: Example B2: Botryotinia fuckeliana (Botrytis cinerea)/Liquid Culture (Gray Mould); type: cell-based; details: liquid culture, growth inhibition photometrically 3 to 4 days after application, read-out: control of Botryotinia fuckeliana
Procedure: Example B2: Botryotinia fuceliana (Botrytis cinerea)/Liquid Culture (Gray Mould)
(§1) Conidia of the fungus from cryogenic storage are directly mixed into nutrient broth (Vogels broth). After placing a (DMSO) solution of test compound into a microtiter plate (96-well format), the nutrient broth containing the fungal spores is added. The test plates are incubated at 24° C. and the inhibition of growth is determined photometrically 3 to 4 days after application.

[3] = test system: Glomerella lagenarium (Colletotrichum lagenarium); experiment: Example B5: Glomerella lagenarium (Colletotrichum lagenarium)/Liquid Culture (Anthracnose); type: cell-based; details: Colletotrichum orbiculare, liquid culture, photometrically 3 to 4 days after application, read-out: control of Glomerella lagenarium
Procedure: Example B5: Glomerella lagenarium (Colletotrichum lagenarium)/Liquid Culture (Anthracnose)
as §1, with “(PDB potato dextrose” for “(Vogels”, “measured” for “determined”

[4] = test system: Phaeosphaeria nodorum (Septoria nodorum); experiment: Example B11: Phaeosphaeria nodorum (Septoria nodorum)/Wheat/Leaf Disc Preventative (Glume Blotch); type: in vivo; details: Parastagonospora nodorum, foliar, wheat leaf segments, inoculated 2 days after application
Procedure: Example B11: Phaeosphaeria nodorum (Septoria nodorum)/Wheat/Leaf Disc Preventative (Glume Blotch)
(§2) Wheat leaf segments cv. Kanzler are placed on agar in a multiwell plate (24-well format) and sprayed with the formulated test compound diluted in water. The leaf disks are inoculated with a spore suspension of the fungus 2 days after application. The inoculated test leaf disks are incubated at 20° C. and 75% rh under a light regime of 12 h light/12 h darkness in a climate cabinet and the activity of a compound is assessed as percent disease control compared to untreated when an appropriate level of disease damage appears in untreated check leaf disks (5-7 days after application).

[5] = test system: Monographella nivalis (Microdochium nivale); experiment: Example B12: Monographella nivalis (Microdochium nivale)/Liquid Culture (Foot Rot Cereals); type: cell-based; details: liquid culture, photometrically 4 to 5 days after application, read-out: control of Monographella nivalis
Procedure: Example B12: Monographella nivalis (Microdochium nivale)/Liquid Culture (Foot Rot Cereals)
as §1, with “broth (PDB potato dextrose” for “broth (Vogels”, “photometrically 4” for “photometrically 3”, “to 5” for “to 4”

[6] = test system: Mycosphaerella arachidis (Cercospora arachidicola); experiment: Example B13: Mycosphaerella arachidis (Cercospora arachidicola)/Liquid Culture (Early Leaf Spot); type: cell-based; details: liquid culture, photometrically 4 to 5 days after application, read-out: control of Mycosphaerella arachidis
Procedure: Example B13: Mycosphaerella arachidis (Cercospora arachidicola)/Liquid Culture (Early Leaf Spot)
as §1, with “broth (PDB potato dextrose” for “broth (Vogels”, “photometrically 4” for “photometrically 3”, “to 5” for “to 4”

[7] = test system: Mycosphaerella graminicola (Septoria tritici); experiment: Example B21: Mycosphaerella graminicola (Septoria tritici)/Liquid Culture (Septoria Blotch); type: cell-based; details: Zymoseptoria tritici, liquid culture, photometrically 4-5 days after application, read-out: control of Mycosphaerella graminicola
Procedure: Example B21: Mycosphaerella graminicola (Septoria tritici)/Liquid Culture (Septoria Blotch)
as §1, with “(PDB potato dextrose” for “(Vogels”, “4-5” for “3 to 4”

Plasmopara viticola = type: in vivo; details: 200 ppm; grape vine leaf disks, preventative, inoculated 1 day after application
Pyrenophora teres = experiment: Example B18: Pyrenophora teres/Barley/Leaf Disc Preventative (Net Blotch); type: in vivo; details: foliar, barley leaf segments, inoculated 2 days after application
Procedure: Example B18: Pyrenophora teres/Barley/Leaf Disc Preventative (Net Blotch)
as §2, with “Barley” for “Wheat”, “Hasso” for “Kanzler”, “segments” for “disks”, “inoculated” for “inoculated test”, “65%” for “75%”, “as” for “as percent”

[8] = test system: Puccinia recondita f. sp. tritici; experiment: Example B16: Puccinia recondita f. sp. tritici/Wheat/Leaf Disc Preventative (Brown Rust); type: in vivo; details: 200 ppm, wheat leaf segments, inoculated 1 day after application
Procedure: Example B16: Puccinia recondita f. sp. tritici/Wheat/Leaf Disc Preventative (Brown Rust)
Wheat leaf segments cv. Kanzler are placed on agar in multiwell plates (24-well format) and sprayed with the formulated test compound diluted in water. The leaf disks are inoculated with a spore suspension of the fungus 1 day after application. The inoculated leaf segments are incubated at 19° C. and 75% rh under a light regime of 12 h light/12 h darkness in a climate cabinet and the activity of a compound is assessed as percent disease control compared to untreated when an appropriate level of disease damage appears in untreated check leaf segments (7-9 days after application).

[9] = test system: Magnaporthe grisea (Pyricularia oryzae); type: in vivo; details: 200 ppm; rice leaf segments, preventative, inoculated 2 days after application
[10] = test system: Thanatephorus cucumeris (Rhizoctonia solani); experiment: Example B19: Thanatephorus cucumeris (Rhizoctonia solani)/Liquid Culture (Foot Rot, Damping-Off); type: cell-based; details: 20 ppm; liquid culture, photometrically 3-4 days after application
Procedure: Example B19: Thanatephorus cucumeris (Rhizoctonia solani)/Liquid Culture (Foot Rot, Damping-Off)
Mycelia fragments of a newly grown liquid culture of the fungus are directly mixed into nutrient broth (PDB potato dextrose broth). After placing a (DMSO) solution of the test compounds into a microtiter plate (96-well format), the nutrient broth containing the fungal material is added. The test plates are incubated at 24° C. and the inhibition of growth is determined photometrically 3-4 days after application.

Fusarium culmorum = type: in vivo; details: 200 ppm; wheat spikelets, preventative, inoculated 1 day after application
[11] = test system: Gibberella zeae (Fusarium graminearum); type: in vivo; details: 200 ppm; wheat spikelets, preventative, inoculated one day after application

## C[C@H]1c2ccccc2[C@@](C)(c2cnn(C)c2)CN1C(=O)c1cc(-c2ccc(F)cc2F)on1 (single isomer, unassigned) [X.22]
[1]
  fungicidal activity compared with the other enantiomer: more fungicidally active than the compound of peak 3

## Cc1c(C2CN(C(=O)c3nc(-c4ccc(F)cc4F)no3)Cc3ccccc32)cnn1C (stereo not drawn) [X.02, [3-(2,4-difluorophenyl)-1,2,4-oxadiazol-5-yl]-[4-(1,5-dimethylpyrazol-4-yl)-3,4-dihydro-1H-isoquinolin-2-yl]methanone]
Alternaria solani
  pest or weed control at 200 ppm: ≥ 80%
[2]
  inhibition of growth at 20 ppm: ≥ 80%
[3]
  inhibition of growth at 20 ppm: ≥ 80%
[4]
  pest or weed control at 200 ppm: ≥ 80%
[5]
  inhibition of growth at 20 ppm: ≥ 80%
[6]
  inhibition of growth at 20 ppm: ≥ 80%
[7]
  inhibition of growth at 20 ppm: ≥ 80%

## C[C@@H]1c2ccccc2[C@@](C)(c2cnn(C)c2)CN1C(=O)c1cc(-c2ccc(F)cc2F)on1 (single isomer, unassigned) [peak 1]
[1]
  fungicidal activity compared with the other enantiomer: more fungicidally active than the compound of peak 2

## Cn1cc(C2CN(C(=O)c3noc(-c4ccccc4)n3)Cc3ccccc32)cn1 (stereo not drawn) [X.17, [4-(1-methylpyrazol-4-yl)-3,4-dihydro-1H-isoquinolin-2-yl]-(5-phenyl-1,2,4-oxadiazol-3-yl)methanone]
[2]
  inhibition of growth at 20 ppm: ≥ 80%
[4]
  pest or weed control at 200 ppm: ≥ 80%
[5]
  inhibition of growth at 20 ppm: ≥ 80%
[6]
  inhibition of growth at 20 ppm: ≥ 80%
Plasmopara viticola
  control of Plasmopara viticola: at least 80%
[7]
  inhibition of growth at 20 ppm: ≥ 80%

## Cn1cc(C2c3ccccc3CN(C(=O)c3cc(-c4ccc(F)cc4F)on3)C2(C)C)cn1 (stereo not drawn) [X.13, [5-(2,4-difluorophenyl)isoxazol-3-yl]-[3,3-dimethyl-4-(1-methylpyrazol-4-yl)-1,4-dihydroisoquinolin-2-yl]methanone]
[2]
  inhibition of growth at 20 ppm: ≥ 80%
[3]
  inhibition of growth at 20 ppm: ≥ 80%
[4]
  pest or weed control at 200 ppm: ≥ 80%
[5]
  inhibition of growth at 20 ppm: ≥ 80%
[6]
  inhibition of growth at 20 ppm: ≥ 80%
Pyrenophora teres
  pest or weed control at 200 ppm: ≥ 80%
[7]
  inhibition of growth at 20 ppm: ≥ 80%

## Cc1c(C2CN(C(=O)c3cc(-c4ccc(F)cc4F)on3)Cc3ccccc32)cnn1C (stereo not drawn) [X.16, [5-(2,4-difluorophenyl)isoxazol-3-yl]-[4-(1,5-dimethylpyrazol-4-yl)-3,4-dihydro-1H-isoquinolin-2-yl]methanone]
[2]
  inhibition of growth at 20 ppm: ≥ 80%
[3]
  inhibition of growth at 20 ppm: ≥ 80%
[4]
  pest or weed control at 200 ppm: ≥ 80%
[5]
  inhibition of growth at 20 ppm: ≥ 80%
[6]
  inhibition of growth at 20 ppm: ≥ 80%
[8]
  control of Puccinia recondita f. sp. tritici: at least 80%
[9]
  control of Magnaporthe grisea: at least 80%
Pyrenophora teres
  pest or weed control at 200 ppm: ≥ 80%
[10]
  control of Thanatephorus cucumeris: at least 80%
[7]
  inhibition of growth at 20 ppm: ≥ 80%

## Cc1c([C@H]2CN(C(=O)c3cc(-c4ncc(F)cc4F)on3)[C@@H](C)c3ccccc32)cnn1C (racemic) [X.21, [5-(3,5-difluoro-2-pyridyl)isoxazol-3-yl]-[rac-(1S,4S)-4-(1,5-dimethylpyrazol-4-yl)-1-methyl-3,4-dihydro-1H-isoquinolin-2-yl]methanone]
Alternaria solani
  pest or weed control at 200 ppm: ≥ 80%
[2]
  inhibition of growth at 20 ppm: ≥ 80%
[3]
  inhibition of growth at 20 ppm: ≥ 80%
Fusarium culmorum
  control of Fusarium culmorum: at least 80%
[11]
  control of Gibberella zeae: at least 80%
[4]
  pest or weed control at 200 ppm: ≥ 80%
[5]
  inhibition of growth at 20 ppm: ≥ 80%
[6]
  inhibition of growth at 20 ppm: ≥ 80%
Pyrenophora teres
  pest or weed control at 200 ppm: ≥ 80%
[7]
  inhibition of growth at 20 ppm: ≥ 80%
